These are literature values, as cited in US11793840B2, “Nano-armored single cell product for treating Parkinson's disease through bacteria and a preparation method thereof” (Tangyi Holdings(Shenzhen) Limited, priority 2021, dated 2023).

The structures appear in SMILES notation.

As for `NCCCC(=O)O` [GABA, Gamma-aminobutyric acid], the “in-vivo terminal elimination half-life” value (in vivo) was 25.1 min. The oral bioavailability (oral administration of GABA) is recorded as 9.81%.
